# Source: patent publication US20100048575A1, “NOVEL TETRACYCLIC INHIBITORS OF CYSTEINE PROTEASES, THE PHARMACEUTICAL COMPOSITIONS THEREOF AND THEIR THERAPEUTIC APPLICATIONS” (priority 2006, published 2010)
# Tests used:
# USP7 = biological target: T1, USP7 (Homo sapiens, UniProt Q93009); assay: USP7 activity assay (Ub-AMC); format: biochemical; settings: 400 nM Ub-AMC, 152 pM enzyme, 30 min pre-incubation, 60 min at 37° C., sigmoidal fit; read-out: USP7 (inhibition of cysteine protease activity)
# T1 construct: His tag (from vector pFastBac-HT) (N); made in house; host or cells: insect cells (Sf9 or High Five), baculovirus
# T1 sequence (Q93009 whole entry): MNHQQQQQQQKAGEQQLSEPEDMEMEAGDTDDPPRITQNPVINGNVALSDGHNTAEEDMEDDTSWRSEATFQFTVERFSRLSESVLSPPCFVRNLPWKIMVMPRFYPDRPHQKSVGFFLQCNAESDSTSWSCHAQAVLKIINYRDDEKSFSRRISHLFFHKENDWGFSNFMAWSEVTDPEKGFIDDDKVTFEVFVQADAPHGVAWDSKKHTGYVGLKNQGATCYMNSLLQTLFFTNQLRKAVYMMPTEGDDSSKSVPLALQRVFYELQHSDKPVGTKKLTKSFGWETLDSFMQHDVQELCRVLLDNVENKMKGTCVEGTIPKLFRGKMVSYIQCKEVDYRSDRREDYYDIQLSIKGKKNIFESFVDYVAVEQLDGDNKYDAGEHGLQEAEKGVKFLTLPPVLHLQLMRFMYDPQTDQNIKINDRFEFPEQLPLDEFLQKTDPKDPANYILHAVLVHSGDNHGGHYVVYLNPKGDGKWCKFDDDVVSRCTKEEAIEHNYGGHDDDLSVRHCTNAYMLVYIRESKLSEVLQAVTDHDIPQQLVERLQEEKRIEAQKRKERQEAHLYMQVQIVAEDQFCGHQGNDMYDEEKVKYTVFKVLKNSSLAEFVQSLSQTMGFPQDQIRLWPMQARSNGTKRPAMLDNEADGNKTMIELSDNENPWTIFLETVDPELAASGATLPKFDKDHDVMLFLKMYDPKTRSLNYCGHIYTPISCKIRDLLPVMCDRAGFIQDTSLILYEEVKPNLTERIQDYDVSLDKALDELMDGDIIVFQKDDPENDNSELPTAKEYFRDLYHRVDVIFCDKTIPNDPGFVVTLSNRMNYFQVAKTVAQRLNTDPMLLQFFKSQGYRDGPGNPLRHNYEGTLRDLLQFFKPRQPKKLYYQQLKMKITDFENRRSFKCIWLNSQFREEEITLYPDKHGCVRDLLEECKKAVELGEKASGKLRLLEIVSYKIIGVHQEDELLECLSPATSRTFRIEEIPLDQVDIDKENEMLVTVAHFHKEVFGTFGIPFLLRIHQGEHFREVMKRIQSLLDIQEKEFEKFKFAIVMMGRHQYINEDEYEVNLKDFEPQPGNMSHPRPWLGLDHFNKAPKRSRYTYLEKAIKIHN
# Excerpt: The cDNA encoding USP7 was obtained by PCR amplification from placenta mRNA. USP7 cDNA was subcloned by PCR into a baculovirus expression vector (pFastBac-HT; Invitrogen). A cDNA encoding a mutated USP7 was generated by mutagenic PCR. The corresponding protein encodes a cysteine to alanine substitution at residue 223. The sequences were ascertained by sequencing of the entire open reading frame. Bacmids encoding […] were generated following DH10bac transposition. The corresponding bacmids were transfected into insect cells (Sf9). Viruses were recovered from culture supernatant and amplified twice. Insect cells (Sf9 or High Five; Invitrogen) were infected for 72 hours. Total cell lysates were harvested and lyzed in lysis buffer-(Tris HCl 50 mM pH7.6; 0.75% NP40; 500 mM NaCl; 10% glycerol; 1 mM DTT; 10 mM imidazole; Protease Inhibitor Cocktail; AEBSF 20 μg.ml^−1; Aprotinin 10 μg.ml^−1). Proteins were affinity purified on metal affinity resins (Talon Metal affinity resin; BD Biosciences). Bound materials were extensively washed in wash buffer (50 mM Sodium Phosphate pH7.0; 300 mM NaCl; 10 mM imidazole; 0.5% Triton X-100; 10% glycerol) and eluted from the resin in 250 mM imidazole-containing wash buffer. Proteins were dialyzed in dialysis buffer (Tris HCl pH 7.6 20 mM; NaCl 200 mM; DTT 1 mM; EDTA 1 mM; 10% Glycerol). Proteins purifications were analyzed on 4-12% NuPAGE (Invitrogen).
# (§1) USP7 was diluted in USP buffer (50 mM Tris HCl; 0.5 mM EDTA; 5 mM DTT; 0.01% Triton X-100; Bovine Serum Albumin 0.05 mg.ml^−1 pH7.6). Compounds stocks (100 mM) were stored at −20° C. in DMSO. Compounds were tested at the following final concentrations: 100 μM; 33.3 μM; 11.1 μM; 3.7 μM; 1.23 μM; 412 nM; 137 nM; 45.7 nM; 15.2 nM; 5 nM.
# Reactions were performed as duplicates in Black LJL 96 well plates (HE microplates; Molecular Devices; 20 μl final reaction volume). The substrate concentration for USP7 was 400 nM Ub-AMC (Chem. Biol., 2003, 10, p. 837-846) (Boston Biochem). The concentrations of the enzyme (USP7) in specificity assays was 152 pM. The concentrations were determined in order to perform specificity assays under initial velocities at fixed substrate concentration. Compounds were pre-incubated with enzymes for 30 minutes at 25° C. Reactions were initiated by addition of substrate to the plates containing the enzymes (+/−compounds) diluted in assay buffer. Reactions were incubated for 60 minutes at 37° C. Reactions were stopped by adding acetic acid (100 mM final). Readings were performed on a Pherastar Fluorescent Reader (BMG). λ Emission 380 nm; λ Excitation=460 nm. Data (mean values +/−standard deviation) were analyzed as % of control (no compound) and plotted as percentage versus the Log of the compound concentration using GraphPad (Prism). Data were fitted to a sigmoidal model (variable slope).
# Uch-L3 = biological target: T2, Uch-L3 (Homo sapiens, UniProt P15374); assay: UCH-L3 activity assay (Ub-AMC); format: biochemical; settings: 400 nM Ub-AMC, 13 pM enzyme, 30 min pre-incubation, 60 min at 37° C., sigmoidal fit; read-out: Uch-L3 (inhibition of cysteine protease activity)
# T2 sequence (P15374 1-230): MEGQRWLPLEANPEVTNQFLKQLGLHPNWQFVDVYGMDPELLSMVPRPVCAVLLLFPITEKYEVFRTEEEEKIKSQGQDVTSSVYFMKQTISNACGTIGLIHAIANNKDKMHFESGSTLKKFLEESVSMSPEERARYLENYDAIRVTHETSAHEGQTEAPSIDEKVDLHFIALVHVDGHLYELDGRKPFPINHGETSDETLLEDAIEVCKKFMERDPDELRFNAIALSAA
# Procedure: as §1, with “Uch-L3 was” for “USP7 was”, “45.7 nM,” for “45.7 nM;”
# Reactions were performed as duplicates in Black LJL 96 well plates (HE microplates; Molecular Devices; 20 μl final reaction volume). The substrate concentration for Uch-L3 was 400 nM Ub-AMC (Boston Biochem). The concentration of the enzyme (Uch-L3) in specificity assays was 13 pM. The concentrations were determined in order to perform specificity assays under initial velocities at fixed substrate concentration. Compounds were pre-incubated with enzymes for 30 minutes at 25° C. Reactions were initiated by addition of substrate to the plates containing the enzymes (+/−compounds) diluted in assay buffer.
# Reactions were incubated for 60 minutes at 37° C. Reactions were stopped by adding acetic acid (100 mM final). Readings were performed on a Pherastar Fluorescent Reader (BMG). δ Emission 380 nm; 6 Excitation=460 nm. Data (mean values +/−standard deviation) were analyzed as % of control (no compound) and plotted as percentage versus the Log of the compound concentration using GraphPad (Prism). Data were fitted to a sigmoidal model (variable slope).
SMILES,IC50 (USP7),IC50 (Uch-L3)
"C=CCON=C1c2ccccc2-c2nn3nnnc3nc21 (mixture of isomers) [compound 6, 1,2,3,3a,4,10-hexaaza-cyclopenta[b]fluoren-9-one O-allyl-oxime]",305 nM,32 nM
"C=CCON=C1c2ccccc2-c2nn3c(C)nnc3nc21 (mixture of isomers) [5b, 3-Methyl-1,2,3a,4,10-pentaaza-cyclopenta[b]fluoren-9-one O-allyl-oxime]",3140 nM,272 nM
"c1ccc(OCCCON=C2c3ccccc3-c3nn4nnnc4nc32)cc1 (mixture of isomers) [8c, 1,2,3,3a,4,10-Hexaaza-cyclopenta[b]fluoren-9-one O-(3-phenoxy-propyl)-oxime]",1780 nM,121 nM
"C=CCON=C1c2ccccc2-c2nn3c(CC)nnc3nc21 (mixture of isomers) [10f, 3-Ethyl-1,2,3a,4,10-pentaaza-cyclopenta[b]fluoren-9-one O-allyl-oxime]",3250 nM,235 nM
"C=CCON=C1c2ccccc2-c2nn3c(CCCC)nnc3nc21 (mixture of isomers) [5d, 3-Butyl-1,2,3a,4,10-pentaaza-cyclopenta[b]fluoren-9-one O-allyl-oxime]",5350 nM,250 nM
"ON=C1c2ccccc2-c2nn3nnnc3nc21 (mixture of isomers) [compound 7, 1,2,3,3a,4,10-hexaaza-cyclopenta[b]fluoren-9-one oxime]",657 nM,57 nM
"CCc1nnc2nc3c(nn12)-c1ccccc1C3=NOCc1ccccc1 (mixture of isomers) [10h, 3-Ethyl-1,2,3a,4,10-pentaaza-cyclopenta[b]fluoren-9-one O-benzyl-oxime]",7280 nM,
"COCCON=C1c2ccccc2-c2nn3nnnc3nc21 (mixture of isomers) [8b, 1,2,3,3a, 4,10-Hexaaza-cyclopenta[b]fluoren-9-one O-(2-methoxy-ethyl)-oxime]",470 nM,48 nM
"CCON=C1c2ccccc2-c2nn3c(CC)nnc3nc21 (mixture of isomers) [10d, 3-Ethyl-1,2,3a,4,10-pentaaza-cyclopenta[b]fluoren-9-one O-ethyl-oxime]",3110 nM,
"CCCCCCCCCCON=C1c2ccccc2-c2nn3nnnc3nc21 (mixture of isomers) [8a, 1,2,3,3a, 4,10-Hexaaza-cyclopenta[b]fluoren-9-one O-decyl-oxime]",,2000 nM
"CCc1nnc2nc3c(nn12)-c1ccccc1C3=NOC (mixture of isomers) [10b, 3-Ethyl-1,2,3a,4,10-pentaaza-cyclopenta[b]fluoren-9-one O-methyl-oxime]",4840 nM,
"CON=C1c2ccccc2-c2nn3c(C)nnc3nc21 (mixture of isomers) [5a, 3-Methyl-1,2,3a,4,10-pentaaza-cyclopenta[b]fluoren-9-one O-methyl-oxime]",4000 nM,410 nM
